Data on nine molecules can be found in ChEMBL document CHEMBL3400001, “Tricyclic 1,5-naphthyridinone oxabicyclooctane-linked novel bacterial topoisomerase inhibitors as broad-spectrum antibacterial agents-SAR of left-hand-side moiety (Part-2)” (Bioorg Med Chem Lett, 2015).

For experiment [1], the system named is Escherichia coli. Nature of the experiment: Antimicrobial activity against Escherichia coli ATCC 25922 by micro broth dilution or agar based method. Type of experiment: functional. Conditions: Escherichia coli, ATCC 25922; read-out: MIC. (In broth dilution the organism is exposed to a series of concentrations in liquid medium.)
Experiment [2] relates to Acinetobacter baumannii. Description: Antimicrobial activity against Acinetobacter baumannii IID876 by micro broth dilution or agar based method. Conditions: Acinetobacter baumannii, IID876; read-out: MIC. Type of experiment: functional.
For experiment [3], the system named is Pseudomonas aeruginosa. Description: Antimicrobial activity against Pseudomonas aeruginosa PAO1 by micro broth dilution or agar based method. The class given is functional. The note with it: Pseudomonas aeruginosa, PAO1; read-out: MIC.
For experiment [4], the target named is Voltage-gated inwardly rectifying potassium channel KCNH2 (Homo sapiens, UniProt Q12809). Nature of the experiment: Inhibition of human ERG by MK499 binding assay.
Voltage-gated inwardly rectifying potassium channel KCNH2, sequence (Q12809 whole entry): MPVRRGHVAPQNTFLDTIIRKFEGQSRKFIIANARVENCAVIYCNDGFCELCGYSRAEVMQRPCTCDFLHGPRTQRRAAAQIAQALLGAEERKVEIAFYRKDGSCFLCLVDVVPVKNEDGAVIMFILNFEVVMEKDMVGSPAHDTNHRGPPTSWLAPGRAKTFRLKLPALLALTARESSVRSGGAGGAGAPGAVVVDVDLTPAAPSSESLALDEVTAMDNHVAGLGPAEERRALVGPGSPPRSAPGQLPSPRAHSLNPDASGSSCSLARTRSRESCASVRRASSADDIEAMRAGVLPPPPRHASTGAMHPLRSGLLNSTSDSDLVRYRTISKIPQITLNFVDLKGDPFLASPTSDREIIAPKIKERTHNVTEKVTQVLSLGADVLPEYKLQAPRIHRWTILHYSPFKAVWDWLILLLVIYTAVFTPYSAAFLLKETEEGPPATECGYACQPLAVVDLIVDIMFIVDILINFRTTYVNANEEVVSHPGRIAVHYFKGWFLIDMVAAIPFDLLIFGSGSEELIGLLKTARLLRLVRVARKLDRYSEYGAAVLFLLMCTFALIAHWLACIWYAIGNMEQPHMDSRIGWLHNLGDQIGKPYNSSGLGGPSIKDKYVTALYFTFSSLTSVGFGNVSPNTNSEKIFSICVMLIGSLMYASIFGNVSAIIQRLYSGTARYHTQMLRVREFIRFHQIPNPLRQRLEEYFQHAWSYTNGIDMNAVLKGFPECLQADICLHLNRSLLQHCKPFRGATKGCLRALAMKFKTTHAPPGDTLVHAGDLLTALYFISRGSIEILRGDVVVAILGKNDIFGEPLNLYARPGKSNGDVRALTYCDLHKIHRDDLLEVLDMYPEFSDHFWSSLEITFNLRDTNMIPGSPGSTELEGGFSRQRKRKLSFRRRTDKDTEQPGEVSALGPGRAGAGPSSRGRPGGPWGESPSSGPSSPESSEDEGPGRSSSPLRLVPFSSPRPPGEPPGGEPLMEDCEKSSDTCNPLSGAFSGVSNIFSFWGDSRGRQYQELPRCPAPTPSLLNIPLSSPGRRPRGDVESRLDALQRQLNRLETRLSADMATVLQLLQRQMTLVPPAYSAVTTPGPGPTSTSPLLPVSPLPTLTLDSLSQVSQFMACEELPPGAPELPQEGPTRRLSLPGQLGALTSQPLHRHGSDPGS
Experiment [5] concerns Staphylococcus aureus. Description: Ratio of MIC for quinolone-resistant Staphylococcus aureus MS5935 to MIC for quinolone-[…]. Type of experiment: functional.
The subject of experiment [6] is Staphylococcus aureus. Description: Antimicrobial activity against Staphylococcus aureus Smith by micro broth dilution or agar based method. The class given is functional. The note with it: Staphylococcus aureus, Smith; read-out: MIC.
Experiment [7] concerns Streptococcus pneumoniae. Nature of the experiment: Antimicrobial activity against Streptococcus pneumoniae IID554 by micro broth dilution or agar based method. The class given is functional. Conditions: Streptococcus pneumoniae, IID554; read-out: MIC.
The subject of experiment [8] is Enterococcus faecalis. Description: Antimicrobial activity against Enterococcus faecalis ATCC 29212 MB by micro broth dilution or agar based method. Type of experiment: functional. Conditions: Enterococcus faecalis, ATCC 29212 MB; read-out: MIC.
For experiment [9], the system named is Enterococcus faecium. Nature of the experiment: Antimicrobial activity against vancomycin-resistant Enterococcus faecium A2373 expressing VanA by micro broth dilution or agar based method. The class given is functional. Conditions: Enterococcus faecium, A2373; read-out: MIC.

Values after ≈ are worked out from the molar mass of the structure shown.

As a reminder, the MIC is the least concentration at which growth counts as inhibited. As a reminder, the IC50 is the concentration that gives 50% inhibition. For the molecule `CO[C@]1(CC23CCC(NCc4ccc5c(n4)NC(=O)CO5)(CC2)CO3)Cn2c(=O)ccc3ncc(F)c1c32`, the MIC in experiment [1] came to 32 µg/mL (≈ 61.4 µM); in [2], 32 µg/mL (≈ 61.4 µM); in [3], 32 µg/mL (≈ 61.4 µM); in experiment [6], 8 µg/mL (≈ 15.3 µM); in experiment [7], 32 µg/mL (≈ 61.4 µM); in experiment [8], 32 µg/mL (≈ 61.4 µM). Besides, in [9], the MIC worked out at 32 µg/mL (≈ 61.4 µM). Further, the IC50 in experiment [4] was determined as 24.5 µM. The Ratio in experiment [5] is listed as less than 4.
For `CO[C@@]1(CC23CCC(NCc4ccc5c(n4)NC(=O)CO5)(CC2)CO3)Cn2c(=O)ccc3ncc(F)c1c32`, the MIC in experiment [1] was 32 µg/mL (≈ 61.4 µM); in [2] it was 16 µg/mL (≈ 30.7 µM); in experiment [3], 32 µg/mL (≈ 61.4 µM); in experiment [6], 4 µg/mL (≈ 7.67 µM); in experiment [7] it was 2 µg/mL (≈ 3.83 µM); in experiment [8] it was 8 µg/mL (≈ 15.3 µM). The MIC in experiment [9] is 32 µg/mL (≈ 61.4 µM). In [4], this molecule came in with an IC50 of 7.3 µM. For the same molecule, the Ratio in [5] is given as less than 4.
As to `O=C1COc2ccc(CNC34CCC(C[C@@]5(O)Cn6c(=O)ccc7ncc(Cl)c5c76)(CC3)OC4)nc2N1`, the minimal inhibitory concentration (MIC) in experiment [1] turned out to be 32 µg/mL (≈ 61.1 µM); in [2] it was 32 µg/mL (≈ 61.1 µM); in experiment [3], 32 µg/mL (≈ 61.1 µM); in experiment [6] it was 4 µg/mL (≈ 7.63 µM); in experiment [7], 4 µg/mL (≈ 7.63 µM); in experiment [8] it was 16 µg/mL (≈ 30.5 µM). The MIC in experiment [9] came out at 32 µg/mL (≈ 61.1 µM). In [4], this molecule showed an IC50 greater than 60 µM. The Ratio in experiment [5] is less than 4.
`O=C1COc2ccc(CNC34CCC(C[C@]5(O)CN6C(=O)CCc7ncc(F)c5c76)(CC3)OC4)nc2N1`: the MIC in [1] was determined as 32 µg/mL (≈ 62.8 µM); in experiment [2], 32 µg/mL (≈ 62.8 µM); in experiment [3], 32 µg/mL (≈ 62.8 µM); in experiment [6], 8 µg/mL (≈ 15.7 µM); in experiment [7] it was 8 µg/mL (≈ 15.7 µM); in experiment [8], 16 µg/mL (≈ 31.4 µM). Also, the minimum inhibitory concentration (MIC) in experiment [9] was determined as 32 µg/mL (≈ 62.8 µM). The molecule also displayed an IC50 in experiment [4] greater than 60 µM. Further, the Ratio in [5] is recorded as less than 4.
With `COc1cnc2ccc(=O)n3c2c1[C@](O)(CC12CCC(NCc4ccc5c(n4)NC(=O)CO5)(CC1)CO2)C3`, the MIC was determined as 32 µg/mL (≈ 61.6 µM) in experiment [1]; 32 µg/mL (≈ 61.6 µM) in experiment [2]; 32 µg/mL (≈ 61.6 µM) in experiment [3]; 8 µg/mL (≈ 15.4 µM) in experiment [6]; 8 µg/mL (≈ 15.4 µM) in experiment [7]; 32 µg/mL (≈ 61.6 µM) in experiment [8]. In addition, in experiment [9], the MIC is 32 µg/mL (≈ 61.6 µM).
With `O=C1COc2ccc(CNC34CCC(C[C@]5(O)Cn6c(=O)ccc7ncc(Cl)c5c76)(CC3)OC4)nc2N1`, the MIC in experiment [1] came out at 8 µg/mL (≈ 15.3 µM); in experiment [2], 8 µg/mL (≈ 15.3 µM); in experiment [3], 32 µg/mL (≈ 61.1 µM); in experiment [6], 0.5 µg/mL (≈ 0.954 µM); in [7] it was 1 µg/mL (≈ 1.91 µM); in experiment [8] it was 4 µg/mL (≈ 7.63 µM). Further, the MIC in [9] was determined as 8 µg/mL (≈ 15.3 µM). In addition, in experiment [4], the IC50 is 53.3 µM. Further, in [5], the Ratio is reported as less than 4.
`O=C1COc2ccc(CNC34CCC(C[C@@]5(O)CN6C(=O)CCc7ncc(F)c5c76)(CC3)OC4)nc2N1`: the MIC in experiment [1] worked out at 32 µg/mL (≈ 62.8 µM); in experiment [2] it was 32 µg/mL (≈ 62.8 µM); in experiment [3], 32 µg/mL (≈ 62.8 µM); in experiment [6], 8 µg/mL (≈ 15.7 µM); in experiment [7], 32 µg/mL (≈ 62.8 µM); in [8] it was 32 µg/mL (≈ 62.8 µM). In addition, the MIC in [9] came out at 32 µg/mL (≈ 62.8 µM). The IC50 in experiment [4] was greater than 60 µM. The Ratio in [5] is less than 4.
Take `O=C1COc2ccc(CNC34CCC(CC5(F)Cn6c(=O)ccc7ncc(F)c5c76)(CC3)OC4)nc2N1` (racemic): the minimal inhibitory concentration (MIC) amounted to 4 µg/mL (≈ 7.85 µM) in experiment [1]; 1 µg/mL (≈ 1.96 µM) in [2]; 32 µg/mL (≈ 62.8 µM) in experiment [3]; 0.25 µg/mL (≈ 0.491 µM) in experiment [6]; 0.5 µg/mL (≈ 0.981 µM) in experiment [7]; 2 µg/mL (≈ 3.93 µM) in experiment [8]. Besides, the MIC in experiment [9] is 4 µg/mL (≈ 7.85 µM).
For `COc1cnc2ccc(=O)n3c2c1[C@@](O)(CC12CCC(NCc4ccc5c(n4)NC(=O)CO5)(CC1)CO2)C3`, the MIC turned out to be 32 µg/mL (≈ 61.6 µM) in [1]; 32 µg/mL (≈ 61.6 µM) in experiment [2]; 32 µg/mL (≈ 61.6 µM) in [3]; 8 µg/mL (≈ 15.4 µM) in experiment [6]; 32 µg/mL (≈ 61.6 µM) in experiment [7]; 32 µg/mL (≈ 61.6 µM) in experiment [8]. Besides, the MIC in [9] worked out at 32 µg/mL (≈ 61.6 µM).
